Reference: patent US7501430B2 (ArQule, Inc., priority 2006, dated 2009)

Molecular target: T1, mutant B-RAF (Homo sapiens, UniProt P15056, V600E)
T1 construct: purchased Upstate (Charlottesville, Va.)
Test: RAF biochemical assay (MEK-1 phosphorylation, anti-phospho MEK1/2 detection)
Settings: read-out: Mutant B-RAF IC50
Method in brief: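 Detection is by ELISA: after a 30 min room-temperature reaction, plate-captured GST-MEK-1 is probed with anti-phospho MEK1/2, then an AP-tagged secondary antibody with fluorescent Attophos read-out.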

T1 sequence (P15056 whole entry V600E): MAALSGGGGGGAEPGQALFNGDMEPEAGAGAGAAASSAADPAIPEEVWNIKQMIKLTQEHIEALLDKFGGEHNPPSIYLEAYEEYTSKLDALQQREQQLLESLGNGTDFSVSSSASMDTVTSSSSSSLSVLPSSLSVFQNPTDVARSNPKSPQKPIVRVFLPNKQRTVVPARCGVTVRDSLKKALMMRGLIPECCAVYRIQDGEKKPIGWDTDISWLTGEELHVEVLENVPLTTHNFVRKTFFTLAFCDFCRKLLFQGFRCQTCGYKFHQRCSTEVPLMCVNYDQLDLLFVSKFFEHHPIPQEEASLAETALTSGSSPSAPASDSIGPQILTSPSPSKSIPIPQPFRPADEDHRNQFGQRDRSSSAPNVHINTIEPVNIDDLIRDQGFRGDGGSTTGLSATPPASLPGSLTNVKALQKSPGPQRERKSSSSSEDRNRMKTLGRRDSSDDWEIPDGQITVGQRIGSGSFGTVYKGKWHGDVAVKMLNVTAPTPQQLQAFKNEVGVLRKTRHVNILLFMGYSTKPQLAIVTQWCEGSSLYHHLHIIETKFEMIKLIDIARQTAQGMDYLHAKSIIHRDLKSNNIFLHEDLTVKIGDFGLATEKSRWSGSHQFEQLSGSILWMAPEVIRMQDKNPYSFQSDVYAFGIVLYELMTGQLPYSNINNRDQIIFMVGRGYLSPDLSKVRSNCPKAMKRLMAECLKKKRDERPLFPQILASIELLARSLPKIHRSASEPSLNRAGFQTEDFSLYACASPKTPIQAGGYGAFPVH

COC(=O)c1ccc(S(=O)(=O)N2CCC[C@@H](Nc3nccc(-c4c(-c5cccc(O)c5)nc5sccn45)n3)C2)cc1 [Example 314, methyl 4-{[(3R)-3-({4-[6-(3-hydroxyphenyl)imidazo[2,1-b][1,3]thiazol-5-yl]pyrimidin-2-yl}amino)piperidin-1-yl]sulfonyl}benzoate]
IC50: 0.03 µM

O=S(=O)(C1CC1)N1CCC(Nc2nccc(-c3c(-c4cccc(O)c4)nc4sccn34)n2)CC1 [Example 315, 3-[5-(2-{[1-(cyclopropylsulfonyl)piperidin-4-yl]amino}pyrimidin-4-yl)imidazo[2,1-b][1,3]thiazol-6-yl}phenol]
IC50: 0.011 µM

N#Cc1ccc(S(=O)(=O)N2CCC(Nc3nccc(-c4c(-c5cccc(O)c5)nc5occn45)n3)CC2)cc1 [Example 317, 4-{[4-({4-[6-(3-hydroxyphenyl)imidazo[2,1-b][1,3]oxazol-5-yl]pyrimidin-2-yl}amino)piperidin-1-yl]sulfonyl}benzonitrile]
IC50: 0.022 µM

Oc1cccc(-c2nc3sccn3c2-c2ccnc(NC3CCN(CC(O)COc4ccc(Cl)cc4)CC3)n2)c1 (stereo not drawn) [Example 318, 3-{5-[2-({1-[3-(4-chlorophenoxy)-2-hydroxypropyl]piperidin-4-yl}amino)pyrimidin-4-yl]imidazo[2,1-b][1,3]thiazol-6-yl}phenol]
IC50: 0.422 µM

NC(=O)c1ccc(S(=O)(=O)N2CCC(Nc3nccc(-c4c(-c5cccc(O)c5)nc5occn45)n3)CC2)cc1 [Example 319, 4-{[4-({4-[6-(3-hydroxyphenyl)imidazo[2,1-b][1,3]oxazol-5-yl]pyrimidin-2-yl}amino)piperidin-1-yl]sulfonyl)benzamide]
IC50: 0.018 µM

O=S(=O)(c1ccc(Cl)cc1)N1CCC(Nc2nccc(-c3c(-c4cccc(O)c4)nc4occn34)n2)CC1 [Example 321, 3-{5-[2-({1-[(4-chlorophenyl)sulfonyl]piperidin-4-yl}amino)pyrimidin-4-yl]imidazo[2,1-b][1,3]oxazol-6-yl}phenol]
IC50: 0.126 µM

O=C(NS(=O)(=O)c1ccc(Cl)cc1)N1CCC(Nc2nccc(-c3c(-c4cccc(O)c4)nc4occn34)n2)CC1 [Example 323, N-[(4-chlorophenyl)sulfonyl]-4-({4-[6-(3-hydroxyphenyl)imidazo[2,1-b][1,3]oxazol-5-yl]pyrimidin-2-yl}amino)piperidine-1-carboxamide]
IC50: 1.22 µM

COc1cccc(-c2nc3occn3c2-c2ccnc(NC3CCN(C(=O)NS(=O)(=O)c4ccc(Cl)cc4)CC3)n2)c1 [Example 324, N-[(4-chlorophenyl)sulfonyl]-4-({4-[6-(3-methoxyphenyl)imidazo[2,1-b][1,3]oxazol-5-yl]pyrimidin-2-yl}amino)piperidine-1-carboxamide]
IC50: 4 µM

COc1cccc(-c2nc3sccn3c2-c2ccnc(N[C@@H]3CCCN(S(=O)(=O)C4CC4)C3)n2)c1 [Example 325, N-[(3R)-1-(cyclopropylsulfonyl)piperidin-3-yl]-4-[6-(3-methoxyphenyl)imidazo[2,1-b][1,3]thiazol-5-yl]pyrimidin-2-amine]
IC50: 4 µM

COc1cccc(-c2nc3sccn3c2-c2ccnc(NC3CCN(S(C)(=O)=O)CC3)n2)c1 [Example 326, 4-[6-(3-methoxyphenyl)imidazo[2,1-b][1,3]thiazol-5-yl]-N-[1-(methylsulfonyl)piperidin-4-yl]pyrimidin-2-amine]
IC50: 4 µM

COc1cccc(-c2nc3sccn3c2-c2ccnc(N[C@@H]3CCCN(C(=O)Nc4ccc(F)cc4)C3)n2)c1 [Example 327, (3R)-N-(4-fluorophenyl)-3-({4-[6-(3-methoxyphenyl)imidazo[2,1-b][1,3]thiazol-5-yl]pyrimidin-2-yl}amino)piperidine-1-carboxamide]
IC50: 4 µM

COc1cccc(-c2nc3sccn3c2-c2ccnc(N[C@@H]3CCCN(C(=O)NC4CCCCC4)C3)n2)c1 [Example 328, (3R)-N-cyclohexyl-3-({4-[6-(3-methoxyphenyl)imidazo[2,1-b][1,3]thiazol-5-yl]pyrimidin-2-yl}amino)piperidine-1-carboxamide]
IC50: 4 µM

CCOc1ccc(NC(=O)N2CCC[C@@H](Nc3nccc(-c4c(-c5cccc(OC)c5)nc5sccn45)n3)C2)cc1 [Example 329, (3R)-N-(4-ethoxyphenyl)-3-({4-[6-(3-methoxyphenyl)imidazo[2,1-b][1,3]thiazol-5-yl]pyri-midin-2-yl}amino)piperidine-1-carboxamide]
IC50: 4 µM

COc1cccc(-c2nc3sccn3c2-c2ccnc(N[C@@H]3CCCN(C(=O)Nc4ccc(SC)cc4)C3)n2)c1 [Example 330, (3R)-3-({4-[6-(3-methoxyphenyl)imidazo[2,1-b][1,3]thiazol-5-yl]pyrimidin-2-yl}amino)-N-[4-(methylthio)phenyl]piperidine-1-carboxamide]
IC50: 4 µM

Oc1cccc(-c2nc3sccn3c2-c2ccnc(N[C@@H]3CCCN(CC(O)COc4ccc(Cl)cc4)C3)n2)c1 (stereo partly drawn) [Example 331, 3-{5-[2-({(3R)-1-[3-(4-chlorophenoxy)-2-hydroxypropyl]piperidin-3-yl}amino)pyrimidin-4-yl]imidazo[2,1-b][1,3]thiazol-6-yl}phenol]
IC50: 1.04 µM

CS(=O)(=O)N1CCC(Nc2nccc(-c3c(-c4cccc(O)c4)nc4sccn34)n2)CC1 [Example 332, 3-[5-(2-{[1-(methylsulfonyl)piperidin-4-yl]amino}pyrimidin-4-yl)imidazo[2,1-b][1,3]thiazol-6-yl}phenol]
IC50: 0.01 µM

Oc1cccc(-c2nc3occn3c2-c2ccnc(N[C@@H]3CCCNC3)n2)c1 [Example 333, 3-(5-{2-[(3R)-piperidin-3-ylamino]pyrimidin-4-yl}imidazo[2,1-b][1,3]oxazol-6-yl}phenol]
IC50: 0.906 µM

CC(C)NC(=O)N1CCC[C@@H](Nc2nccc(-c3c(-c4cccc(O)c4)nc4sccn34)n2)C1 [Example 334, (3R)-3-({4-[6-(3-hydroxyphenyl)imidazo[2,1-b][1,3]thiazol-5-yl]pyrimidin-2-yl}amino)-N-isopropylpiperidine-1-carboxamide]
IC50: 0.65 µM

O=C(Nc1ccc(F)cc1)N1CCC[C@@H](Nc2nccc(-c3c(-c4cccc(O)c4)nc4sccn34)n2)C1 [Example 335, (3R)-N-(4-fluorophenyl)-3-({4-[6-(3-hydroxyphenyl)imidazo[2,1-b][1,3]thiazol-5-yl]pyrimidin-2-yl}amino)piperidine-1-carboxamide]
IC50: 3.26 µM

O=C(NS(=O)(=O)c1ccc(Cl)cc1)N1CCC(Nc2nccc(-c3c(-c4cccc(O)c4)nc4sccn34)n2)CC1 [Example 336, N-[(4-chlorophenyl)sulfonyl]-4-({4-[6-(3-hydroxyphenyl)imidazo[2,1-b][1,3]thiazol-5-yl]pyrimidin-2-yl}amino)piperidine-1-carboxamide]
IC50: 1.05 µM

COc1cccc(-c2nc3occn3c2-c2ccnc(NC3CCNCC3)n2)c1 [Example 337, 4-[6-(3-methoxyphenyl)imidazo[2,1-b][1,3]oxazol-5-yl]-N-piperidin-4-ylpyrimidin-2-amine]
IC50: 3.21 µM

COc1cccc(-c2nc3occn3c2-c2ccnc(NC3CCN(S(=O)(=O)C4CC4)CC3)n2)c1 [Example 338, N-[1-(cyclopropylsulfonyl)piperidin-4-yl]-4-[6-(3-methoxyphenyl)imidazo[2,1-b][1,3]oxazol-5-yl]pyrimidin-2-amine]
IC50: 6.99 µM

O=S(=O)(C1CC1)N1CCC(Nc2nccc(-c3c(-c4cccc(O)c4)nc4occn34)n2)CC1 [Example 339, 3-[5-(2-{[1-(cyclopropylsulfonyl)piperidin-4-yl]amino}pyrimidin-4-yl)imidazo[2,1-b][1,3]oxazol-6-yl]phenol]
IC50: 0.046 µM

O=C(OC[C@H](O)CO)c1ccc(S(=O)(=O)N2CCC[C@@H](Nc3nccc(-c4c(-c5cccc(O)c5)nc5sccn45)n3)C2)cc1 [Example 341, (2R)-2,3-dihydroxypropyl 4-{[(3R)-3-({4-[6-(3-hydroxyphenyl)imidazo[2,1-b][1,3]thiazol-5-yl]pyrimidin-2-yl}amino)piperidin-1-yl]sulfonyl}benzoate]
IC50: 0.033 µM

CS(=O)(=O)N1CCC(Nc2nccc(-c3c(-c4cccc(O)c4)nc4occn34)n2)CC1 [Example 342, 3-[5-(2-{[1-(methylsulfonyl)piperidin-4-yl]amino}pyrimidin-4-yl)imidazo[2,1-b][1,3]oxazol-6-yl]phenol]
IC50: 0.258 µM

O=C(Nc1ccc(O)cc1)N1CCC[C@@H](Nc2nccc(-c3c(-c4cccc(O)c4)nc4sccn34)n2)C1 [Example 343, (3R)-N-(4-hydroxyphenyl)-3-({4-[6-(3-hydroxyphenyl)imidazo[2,1-b][1,3]thiazol-5-yl]pyrimidin-2-yl}amino)piperidine-1-carboxamide]
IC50: 1.44 µM

CSc1ccc(NC(=O)N2CCC[C@@H](Nc3nccc(-c4c(-c5cccc(O)c5)nc5sccn45)n3)C2)cc1 [Example 344, (3R)-3-({4-[6-(3-hydroxyphenyl)imidazo[2,1-b][1,3]thiazol-5-yl]pyrimidin-2-yl}amino)-N-[4-(methylthio)phenyl]piperidine-1-carboxamide]
IC50: 2.45 µM

CS(=O)(=O)Nc1cccc(-c2nc3sccn3c2-c2ccnc(N[C@@H]3CCCN(S(=O)(=O)c4ccc(Cl)cc4)C3)n2)c1 [Example 346, N-(3-{5-[2-({(3R)-1-[(4-chlorophenyl)sulfonyl]piperidin-3-yl}amino)pyrimidin-4-yl]imidazo[2,1-b][1,3]thiazol-6-yl}phenyl)methanesulfonamide]
IC50: 0.88 µM

CCNC(=O)Nc1cccc(-c2nc3sccn3c2-c2ccnc(N[C@@H]3CCCN(S(=O)(=O)c4ccc(Cl)cc4)C3)n2)c1 [Example 347, 1-(3-{5-[2-({(3R)-1-[(4-chlorophenyl)sulfonyl]piperidin-3-yl}amino)pyrimidin-4-yl]imidazo[2,1-b][1,3]thiazol-6-yl}phenyl)-3-ethyl urea]
IC50: 0.546 µM

COc1cc(-c2nc3sccn3c2-c2ccnc(N[C@@H]3CCCN(S(=O)(=O)c4ccc(Cl)cc4)C3)n2)ccc1F [Example 348, N-{(3R)-1-[(4-chlorophenyl)sulfonyl]piperidin-3-yl}-4-[6-(4-fluoro-3-methoxyphenyl)imidazo[2,1-b][1,3]thiazol-5-yl]pyrimidin-2-amine]
IC50: 0.105 µM
